In PMC9313321 (Biomedicines, 2022):

Columns and labels:
[1] = target: T1, Cu(II)-induced Aβ42 aggregation (Homo sapiens, UniProt P05067); assay: Inhibition of Cu(II)-induced Aβ42 aggregation (thioflavin T fluorescence); assay type: biochemical; settings: for inhibition at 20 µM: read-out: Aβ42 Cu-Ind. Aggreg. Inhib, copper (40 μM), 20 μM inhibitor, thioflavin-T fluorescence, 37 °C 24 h
T1 construct: Beta-amyloid protein, fragment 1-42; purchased GeneCust
Procedure: The inhibition of Aβ42 aggregation and Cu(II)-induced Aβ42 aggregation, carried out by the RIV–BIM hybrids, was studied using a reported method based on the fluorescence emission of thioflavin T [52, 53].
Solutions of phosphate buffer 0.215 M at pH = 8.00, Na2CO3 300 μM in distilled water, NaOH 250 mM in distilled water, glycine-NaOH 50 mM buffer at pH = 8.50 and CuCl2 240 μM in phosphate buffer were prepared. Stock solutions of […] of the RIV–BIM compounds were prepared in MeOH (with 20% DMSO). Working solutions of 240 μM of the RIV–BIM hybrids were prepared by the proper dilution of their stock solutions with phosphate buffer. A working solution of glycine-NaOH 50 mM buffer at pH = 8.50 containing 5 μM of thioflavin T (ThT) was prepared daily. Aβ42 (GeneCust) was pre-treated with 1,1,1,3,3,3-hexafluoro-2-propanol (HFIP) to obtain a solution of 0.149 mM by brief sonication and vortexing, which was kept covered overnight at room temperature. From the Aβ42 solution, aliquots of 250 μL were placed into Eppendorf tubes under ice and set to evaporate inside a hood at room temperature overnight. When the contents of the Eppendorf tubes were dried, the Aβ42 aliquots were stored at −20 °C until needed. To obtain the Aβ42 working solution, the Aβ42 aliquots were dissolved with a freshly prepared mixture of 69.5 μL of CH3CN/Na2CO3 (300 μM)/NaOH (250 mM) (48.3/48.3/3.4, v/v/v) by brief sonication and vortexing to obtain an Aβ42 solution of 531.24 μM. To this solution, 392.5 μL of phosphate buffer was added, achieving an Aβ42 working solution of 80 μM. To prepare the incubations, three replicates of Aβ42 alone (30 μL Aβ42 80 μM + 30 μL phosphate buffer), Aβ42 with RIV–BIM (30 μL Aβ42 80 μM + 10 μL RIV–BIM 240 μM + 20 μL phosphate buffer), Aβ42 with copper (30 μL Aβ42 80 μM + 10 μL CuCl2 240 μM + 20 μL phosphate buffer) and Aβ42 with copper and RIV–BIM (30 μL Aβ42 80 μM + 10 μL CuCl2 240 μM + 10 μL RIV–BIM 240 μM + 10 μL phosphate buffer) were placed in Eppendorfs. To obtain the blank solutions, a similar number of Eppendorfs, replacing Aβ42 with phosphate buffer, were prepared. Incubations were performed in a water bath at 37 °C with agitation for 24 h. Afterwards, 180 μL of glycine-NaOH 50 mM buffer at pH = 8.50 containing 5 μM of ThT was added to each Eppendorf and then they were vortexed. Finally, 200 μL of solution from each Eppendorf was placed in the wells of a microplate and fluorescence measurements were monitored using a Spectramax Gemini EM (Molecular Devices) fluorimeter with an excitation wavelength of 446 nm and an emission wavelength of 485 nm. Blank signals were subtracted from the corresponding samples. The fluorescence intensity of the Aβ42 + RIV–BIM solution was compared to that of the Aβ42 solution to obtain the inhibition of Aβ42 self-aggregation for each compound. The fluorescence intensity of the Aβ42 + Cu(II) + RIV–BIM solution was compared to that of the Aβ42 + Cu(II) solution to obtain the inhibition of the Cu(II)-induced Aβ42 aggregation for each hybrid.
The anti-amyloidogenic capacity of the compounds was assessed in vitro using the thioflavin T (ThT) method. To record fluorescence emission, excitation (446 nm) and emission (485 nm) wavelengths were used. When ThT binds to amyloid fibrils, an increase in absorbance and emission of this dye occurs with concomitant red shifts of the respective spectra. The percent of inhibition of Aβ42 aggregation is shown in Table 1, and the assays were performed in the presence of 20 μM of inhibitor. These concentration conditions were used to overcome solubility problems of some compounds in the aqueous phosphate buffer working medium. […]. […]

[2] = Radical scavenging activity (DPPH method); settings: read-out: Antioxid. EC50, 30 min, absorbance 517 nm
Procedure: To determine the radical scavenging activity (antioxidant activity) of the novel RIV–BIM hybrids, the DPPH method was performed as previously described in the literature [49]. Working solutions of 20 mg of the ligands were prepared daily in 10 mL of MeOH (with a 10% of DMSO). A working solution of 2 mg DPPH in 100 mL MeOH was prepared daily, and its absorbance was checked to be between 0.75 and 1.00 (a.u.). […] Each one of the calibrate points was kept for 30 min under darkness to allow the ligands to exert their antioxidant effects. After 30 min, an auto-zero was performed with MeOH in both sample and reference cells, using a UV–Vis spectrophotometer. […] The antioxidant activity (%AA) for each point was calculated using the following equation: %AA=ADPPH−Aligand/ADPPH×100
The radical scavenging activity of the RIV–BIM compounds was determined by a spectrophotometric method involving the 2,2-diphenyl-1-picrylhydrazyl (DPPH) free radical [35, 64].

T1 sequence (P05067 672-713 limits assumed): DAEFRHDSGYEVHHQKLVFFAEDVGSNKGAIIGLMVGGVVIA

CCN(C)C(=O)Oc1cccc(NC(=O)c2ccc3nc(-c4ccccc4O)[nH]c3c2)c1 [Compound 4a, 3-(2-(2-Hydroxyphenyl)-1H-benzo[d]imidazole-6-carboxamido)phenyl Ethylmethylcarbamate]
inhibition at 20 µM [1]: 41.2%

CCN(C)C(=O)Oc1cccc(CNC(=O)c2ccc3nc(-c4ccccc4O)[nH]c3c2)c1 [Compound 4b, 3-((2-(2-Hydroxyphenyl)-1H-benzo[d]imidazole-6-carboxamido)methyl) Phenyl Ethylmethylcarbamate]
inhibition at 20 µM [1]: 48.8% | EC50 [2]: 0.9 ± 0.1 mM

CCN(C)C(=O)Oc1cccc(CCNC(=O)c2ccc3nc(-c4ccccc4O)[nH]c3c2)c1 [Compound 4c, 3-(2-(2-(2-Hydroxyphenyl)-1H-benzo[d]imidazole-6-carboxamido)ethyl) Phenylethylmethylcarbamate]
inhibition at 20 µM [1]: 22% | EC50 [2]: 10 mM

CCN(C)C(=O)Oc1ccc(CCCNC(=O)c2ccc3nc(-c4ccccc4O)[nH]c3c2)cc1 [Compound 4d, 4-(3-(2-(2-Hydroxyphenyl)-1H-benzo[d]imidazole-6-carboxamido)propyl) Phenyl Ethylmethylcarbamate]
inhibition at 20 µM [1]: 21.3%

CCN(C)C(=O)Oc1cccc(NC(=O)c2cccc3[nH]c(-c4ccccc4O)nc23)c1 [Compound 5a, 3-(2-(2-Hydroxyphenyl)-1H-benzo[d]imidazole-4-carboxamido)phenyl Ethylmethylcarbamate]
inhibition at 20 µM [1]: 45.4%

CCN(C)C(=O)Oc1cccc(CNC(=O)c2cccc3[nH]c(-c4ccccc4O)nc23)c1 [Compound 5b, 3-((2-(2-Hydroxyphenyl)-1H-benzo[d]imidazole-4-carboxamido)methyl) Phenyl Ethylmethylcarbamate]
inhibition at 20 µM [1]: 60.8%

CCN(C)C(=O)Oc1ccc(CCCNC(=O)c2cccc3[nH]c(-c4ccccc4O)nc23)cc1 [Compound 5d, 4-(3-(2-(2-Hydroxyphenyl)-1H-benzo[d]imidazole-4-carboxamido) Propyl) Phenyl Ethyl(methyl)carbamate]
Aβ42 Cu-Ind. Aggreg. Inhib ([1]; copper (40 μM), 20 μM inhibitor, thioflavin-T fluorescence, 37 °C 24 h): 40.3% | inhibition at 20 µM [1]: 41.2 to 60.8%
